Values of other authors, collected in patent US12611407B2, “Gastro-resistant high-strength formulation containing posaconazole” (Alfred E. Tiefenbacher (GmbH & Co. KG), priority 2020, dated 2026).

How the values were obtained:
[1] = not given; remark: listed apart in the source

SMILES | aqueous solubility | water solubility compared with form I | stability in an aqueous suspension compared with form I ([1]; aqueous suspension) | stability of the crystalline form ([1]; normal storage conditions or specific stress conditions)
CC[C@@H]([C@H](C)O)n1ncn(-c2ccc(N3CCN(c4ccc(OC[C@@H]5CO[C@@](Cn6cncn6)(c6ccc(F)cc6F)C5)cc4)CC3)cc2)c1=O [Posaconazole] | low aqueous solubility |  |  | 
CC[C@@H]([C@H](C)O)n1ncn(-c2ccc(N3CCN(c4ccc(OC[C@@H]5CO[C@@](Cn6cncn6)(c6ccc(F)cc6F)C5)cc4)CC3)cc2)c1=O [form IV, posaconazole] |  | better water solubility | better stability in an aqueous suspension | 
CC[C@@H]([C@H](C)O)n1ncn(-c2ccc(N3CCN(c4ccc(OC[C@@H]5CO[C@@](Cn6cncn6)(c6ccc(F)cc6F)C5)cc4)CC3)cc2)c1=O [form Y, posaconazole] |  | better water solubility |  | as stable as form I
